# Results taken from patent US4402942A, “Oxytocin derivatives” (Ferring AB, priority 1980, dated 1983).
# Columns and labels:
# [1] = test system: oxytocin induced uterine contractions; settings: literature, studies on rats; cited from earlier work
# [2] = test system: spontaneous uterine function; settings: Swedish patent 7713/70; cited from earlier work
# [3] = Blood pressure after intravenous dose; assay type: in vivo; settings: 30 μg intravenously
# [4] = test system: rat uterus preparations stimulated with oxytocin; assay: Antagonistic activity (pA2) on rat uterus preparations in vitro stimulated with oxytocin; assay type: cell-based; settings: oxytocin as agonist
# Method: Sprague Dawley rats (body weight approximately 250 g) in natural estrous were selected by vaginal smears. An approximately 20 mm long segment was cut from the middle of a uterine horn and mounted in an organ bath containing 10 ml of a modified Locke's solution of the following composition (mM:NaCl 153, KCl 5.63, CaCl2 0.541, NaHCO3 5.95 and glucose 2.78). The solution was gassed with 5% CO2 in oxygen at 30° C. The uterine contractions were allowed to stabilize for 30 minutes. Contractions were recorded isometrically at a resting tension of 1.5 g using Grass force transducers (Ft. 03). Antagonistic potency of the analogues was calculated as pA2 values (Rudinger, J. & Krejci, I. Experientia 18, (1962), 585-588). pA2 is a measure of the inhibitory property of the peptide and was defined by Schild (Schild, H. O., British Journal of Pharmacology, 2, (1947), 189-206) as the negative logarithm of the molar concentration of an antagonist which reduces the effect of a dose of agonist to that of half the dose.
# isolated rat uterus = assay: Uterotonic potency on isolated rat uterus with oxytocin as standard; assay type: cell-based; settings: rat in vitro
# Method: The known compounds 2-O-methyltyrosine-oxytocin and 2-O-ethyltyrosine-oxytocin and a representative compound according to the invention, viz. 1-deamino-(2-O-ethyltyrosine)-oxytocin, was examined with regard to uterotonic potency on isolated rat uterus with use of oxytocin as standard. The antagonistic properties of the compounds were also evaluated with the aid of said preparation, but also in vivo with use of oxytocin as agonist. Moreover, the inhibition of oxytocin effect on isolated human myometrium was examined.
# Sprague Dawley rats (body weight approximately 250 g) in natural estrous were selected by vaginal smears. […] Contractions were recorded isometrically at a resting tension of 1.5 g using Grass force transducers (Ft. 03). Antagonistic potency of the analogues was calculated as pA2 values (Rudinger, J. & Krejci, I. Experientia 18, (1962), 585-588). pA2 is a measure of the inhibitory property of the peptide and was defined by Schild (Schild, H. O., British Journal of Pharmacology, 2, (1947), 189-206) as the negative logarithm of the molar concentration of an antagonist which reduces the effect of a dose of agonist to that of half the dose.
# [5] = test system: uterine contractions caused by infusion of oxytocin; assay: Rat in vivo uterine contractions under oxytocin infusion; settings: for complete block of the uterine contraction pattern (oxytocin initiated and spontaneous): dose of 2 μg; for inhibition of the increase of strength of uterine contractions caused by oxytocin infusion: oxytocin 0.05 μg/min/100 g body weight
# Method: Sprague Dawley rats (250 g) in natural estrous were anaesthetized with Inactin (0.5 mg/100 g body weight i.p.). Myometrial activity was recorded by means of a catheter fixed in the uterine cavity and filled with modified Locke's solution. The catheter was connected to a Statham P23d transducer and contractions were recorded on a Grass polygraph (model 7D). Oxytocin was infused intravenously (0.05 μg/min/100 g body weight). When a regular contraction pattern had been obtained the antagonist (0.8-8.0 μg/100 g body weight) was administered intravenously in a volume of 0.2 ml. The recorded curve was integrated over 10 minute intervals immediately before and after injection of the antagonist.
# [6] = test system: isolated human myometrium (pregnant), oxytocin induced contractions; assay: Inhibition of oxytocin induced contractions of isolated uterine tissue from pregnant women; assay type: cell-based; settings: in vitro
# Method: From 17 patients undergoing caesarean section (week 37-40) a transverse segment of uterine tissue was excised from the isthmic part of the uterus. Tissue pieces were also excised from the ventral side of the uterus of 21 non-pregnant women in fertile age undergoing hysterectomy. The tissue pieces were immediately placed in Krebs-Ringer solution (mM: NaCl 118, KCl 4.6, CaCl2 2.5, MgSO4 1.15, NaHCO3 24.9, KH2 PO4 1.15 and glucose 5.5) at 0° C. and used within two hours after the operation. Segments pieces 25×3×3 mm large were mounted in an organ bath containing 10 ml Krebs-Ringer solution at 37° C. and gassed with 5% CO2 in oxygen. After an adaptation period of 30 minutes contractions were isometrically recorded at a resting tension of 1.25 g. In experiments involving pregnant women use was made of oxytocin (0.013-1.3 μg/ml) as an agonist. Lysinevasopressin (0.07-1.3 μg/ml) was used as an agonist where non-pregnant tissue was tested. A suitable dose of agonist was selected, which gave an effect corresponding to approximately 40% of the maximum effect. The antagonist was used in a concentration of 0.33-1.32 μg/ml. […] The inhibitory effect of the antagonist was measured by planimetry, for 15 minutes after the addition of the peptide, of the total surface of the curve recorded. Inhibition was expressed as a percentage of the effect obtained with the agonist alone.
Compound,effect on oxytocin induced uterine contractions [1],effect on the spontaneous uterine function [2],effect on the blood pressure [3],pA2 (average ± average error) [4],uterotonic potency (isolated rat uterus),complete block of the uterine contraction pattern (oxytocin initiated and spontaneous) [5],inhibition of the increase of strength of uterine contractions caused by oxytocin infusion [5],inhibition of oxytocin induced contractions [6]
N^α -acetyl-2-O-methyltyrosine-oxytocin,antagonistic effect,no effect on the spontaneous uterine function,–,–,–,–,–,–
"[1-deaminopenicillamine,2-O-methyltyrosine]oxytocin",antagonistic effect,–,–,–,–,–,–,–
CCOc1ccc(C[C@@H]2NC(=O)CCSSC[C@@H](C(=O)N3CCC[C@H]3C(=O)N[C@@H](CC(C)C)C(=O)NCC(N)=O)NC(=O)[C@H](CC(N)=O)NC(=O)[C@H](CCC(N)=O)NC(=O)[C@H]([C@@H](C)CC)NC2=O)cc1 [1-deamino-2-O-ethyltyrosine-oxytocin],–,–,no effect at all on the blood pressure,7.19 ± 0.10,–,–,–,–
2-O-methyltyrosine-oxytocin,antagonistic effect,–,–,6.68 ± 0.12,1-2 IU/mg,lack this ability,dose dependent reversible inhibition,–
2-O-ethyltyrosine-oxytocin,antagonistic effect,–,–,7.13 ± 0.09,1-2 IU/mg,lack this ability,dose dependent reversible inhibition,"a significant inhibition was obtained, which was however considerably lower than with use of the compound according to the invention"
